# Patent US20240156832A1, “METHODS OF METABOLIZING METOPIMAZINE AND ITS SALTS” (Neurogastrx, Inc., priority 2020, published 2024)
# Key:
# [1] = Incubation of MPZ in human intestine S9; type: in vitro ADME; conditions: human intestine S9 1 mg/mL, 2.5 μM MPZ, 60 min
# Protocol: Initial experiment was conducted with S9 fractions from liver and intestine to assess the role of liver and intestinal enzymes in the metabolism of MPZ. The reaction mixture contained 2.5 μM MPZ, pooled human liver or intestine S9 fraction (1 mg/mL S9 protein), 100 mM KPi buffer (pH 7.4). The reaction mixture was pre-incubated for 3-5 min at 37° C. in a humidified incubator filled with 5% CO2 followed by the addition of NADPH (1 mM) to initiate the reaction. The reaction was incubated for 0 and 60 min. The total percentage of organic solvent in incubation mixture was <0.1%. The reactions were terminated by the addition of sample mixture of acetonitrile and ethanol (90:10, v/v). The positive control substrate, 7-EC, was incubated in triplicate in an identical manner as MPZ for S9 fractions.
# [2] = test system: rhFMO1, rhFMO3, and rhFMO5; assay: Incubation with recombinant FMO; type: in vitro ADME, human; conditions: 1 μM MPZ, pH 8.4
# Protocol: Protein concentrations for all rFMO isoforms were 0.05 mg/mL. A positive control (benzydamine, 100 μM) was incubated for 20 minutes. […] All other procedures were the same as described previously. The negative control reactions were incubated absence of NADPH.
# [3] = Incubation with HKM for FMO; type: in vitro ADME, human; conditions: HKM pH 8.4, NADPH, with/without methimazole, heat inactivation
# Protocol: (§1) MPZ, at 1.0 and 10.0 μM, was incubated with HLM or HKM to determine the contribution of microsomal FMOs on the metabolism of MPZ. A reaction mixture containing KPi buffer (pH 8.4), HLM or HKM (0.5 mg/mL protein) and MPZ (1.0 and 10.0 μM) was pre-incubated for 3-5 minutes at 37° C. The reaction was initiated by the addition of NADPH into the reaction mixture. Reaction was conducted for 0 and 60 min. A positive control (benzydamine, 100 μM) was incubated in duplicate for 0 and 20 minutes. Parallel incubation was conducted by adding 1 mM methimazole, a non-specific FMO inhibitor, under identical conditions. Heat inactivated microsomes (50° C. for at least 5 minutes) was incubated under identical conditions negative control. All other procedures were the same as described previously.
# microsomal FMOs in HLM = assay: Incubation with HLM for FMO (pH 8.4, methimazole, heat); type: in vitro ADME, human; conditions: 1 and 10 μM MPZ, NADPH, with and without methimazole, heat-pretreated control
# Protocol: MPZ, at 1.0 and 10.0 μM, was incubated with HLM or HKM to determine the contribution of microsomal FMOs on the metabolism of MPZ.
# as §1, with “A” for “MPZ, at 1.0 and 10.0 μM, was incubated with HLM or HKM to determine the contribution of microsomal FMOs on the metabolism of MPZ. A”
# [4] = target: T1, human liver cytosolic aldehyde oxidase (Homo sapiens, UniProt Q06278); assay: Incubations with HLC fractions for AO activity; type: in vitro ADME; conditions: HLC 1 mg/mL, 10 μM MPZ
# T1 construct: tissue Xenotech; host or cells: pooled human liver cytosol
# T1 sequence (Q06278 1-1338): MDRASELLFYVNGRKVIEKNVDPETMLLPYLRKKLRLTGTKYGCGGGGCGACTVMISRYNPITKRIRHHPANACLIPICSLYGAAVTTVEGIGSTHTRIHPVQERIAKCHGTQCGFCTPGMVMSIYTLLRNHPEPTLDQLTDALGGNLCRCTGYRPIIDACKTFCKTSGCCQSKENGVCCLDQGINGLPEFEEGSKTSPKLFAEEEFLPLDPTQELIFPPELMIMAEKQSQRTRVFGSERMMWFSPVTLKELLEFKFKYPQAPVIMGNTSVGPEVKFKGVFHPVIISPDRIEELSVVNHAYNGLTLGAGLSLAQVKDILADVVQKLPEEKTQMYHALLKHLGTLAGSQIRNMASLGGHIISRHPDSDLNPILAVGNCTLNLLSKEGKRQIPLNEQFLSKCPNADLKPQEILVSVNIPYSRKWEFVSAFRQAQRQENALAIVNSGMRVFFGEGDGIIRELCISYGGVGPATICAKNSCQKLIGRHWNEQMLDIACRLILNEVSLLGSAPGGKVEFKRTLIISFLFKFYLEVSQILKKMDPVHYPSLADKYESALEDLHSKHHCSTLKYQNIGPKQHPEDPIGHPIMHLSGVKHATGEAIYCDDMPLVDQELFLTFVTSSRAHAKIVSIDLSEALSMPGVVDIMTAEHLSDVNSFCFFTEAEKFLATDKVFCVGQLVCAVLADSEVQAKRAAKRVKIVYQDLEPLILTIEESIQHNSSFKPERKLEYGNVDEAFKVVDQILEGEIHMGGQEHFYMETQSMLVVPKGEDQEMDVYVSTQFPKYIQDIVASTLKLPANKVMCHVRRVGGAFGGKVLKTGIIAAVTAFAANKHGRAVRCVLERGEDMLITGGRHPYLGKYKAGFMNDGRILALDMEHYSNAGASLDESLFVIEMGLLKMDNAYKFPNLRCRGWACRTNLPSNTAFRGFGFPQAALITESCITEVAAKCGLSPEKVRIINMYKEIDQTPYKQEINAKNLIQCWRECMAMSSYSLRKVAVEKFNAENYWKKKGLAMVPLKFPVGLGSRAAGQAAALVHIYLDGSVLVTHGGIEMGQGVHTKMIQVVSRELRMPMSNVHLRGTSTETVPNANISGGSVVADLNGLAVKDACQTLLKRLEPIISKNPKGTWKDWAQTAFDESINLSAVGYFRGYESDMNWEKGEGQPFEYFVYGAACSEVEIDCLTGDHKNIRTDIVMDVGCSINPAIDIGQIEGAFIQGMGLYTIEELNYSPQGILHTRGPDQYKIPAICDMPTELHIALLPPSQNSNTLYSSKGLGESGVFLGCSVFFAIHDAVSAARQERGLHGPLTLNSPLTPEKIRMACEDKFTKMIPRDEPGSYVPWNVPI
# Protocol: The metabolism of MPZ was evaluated in the human liver cytosolic incubation. A metabolic incubation was performed with HLC (1 mg/mL protein) and 10 μM MPZ at 37° C. for on an orbital shaker for 60 min. […] Another set of incubation was also conducted 1 μM phthalazine, a known substrate for aldehyde oxidase as positive control, under identical conditions.
SMILES,metabolism of MPZ [1],metabolism of MPZ by recombinant FMO enzymes [2],metabolite production in HKM [3],metabolite production in HKM ([3]; listed as metopimazine),MPZA formation in HLM at pH 8.4 (microsomal FMOs in HLM),"Metopimazine Acid Formation, 100 μM Menadione ([4]; incubation time 0 min) [nM]","Metopimazine Acid Formation, No Menadione ([4]; incubation time 0 min) [nM]","Metopimazine Acid Formation, 100 μM Menadione ([4]; incubation time 60 min) [nM]","Metopimazine Acid Formation, No Menadione ([4]; incubation time 60 min) [nM]"
"CS(=O)(=O)c1ccc2c(c1)N(CCCN1CCC(C(N)=O)CC1)c1ccccc1S2 [MPZ, metopimazine]",virtually no metabolism,did not metabolize MPZ,did not produce any metabolites,No metabolites were produced under any condition,,,,,
"CS(=O)(=O)c1ccc2c(c1)N(CCCN1CCC(C(=O)O)CC1)c1ccccc1S2 [MPZA, metopimazine acid]",,,,,Considerable formation of MPZA was observed with all conditions,0.00,0.00,718.90 ± 21.40,1371.66 ± 70.93
